{"source": "patent US20240139149A1", "about": "“THERAPEUTIC USES OF UROLITHIN DERIVATIVES” (Vandria SA, priority 2022, published 2024)", "test_system": "cortical neurons and microglial cells injured with Aβ1-42", "assay": "Rat primary culture of cortical neurons and microglial cells injured with Aβ1-42", "type": "cell-based", "protocol": "Pregnant female rat (Wistar) of 15 days of gestation were killed using a deep anesthesia with CO2 chamber and a cervical dislocation. Fetuses were collected and immediately placed in ice-cold L15 Leibovitz medium with a 2% penicillin (10,000 U/mL) and streptomycin (10 mg/mL) solution (PS) and 1% bovine serum albumin (BSA). Cortex were specifically dissected and then were treated for 20 min at 37° C. with a trypsin-EDTA solution at a final concentration of 0.05% trypsin and 0.02% EDTA. The dissociation was stopped by addition of Dulbecco's modified Eagle's medium (DMEM) with 4.5 g/L of glucose, containing DNAse I grade II (final concentration 0.5 mg/mL) and 10% fetal calf serum (FCS). Cells were mechanically dissociated by three forced passages through the tip of a 10-mL pipette. Cells were then centrifuged at 515×g for 10 min at 4° C. The supernatant was discarded, and the pellet was resuspended in a defined culture medium consisting of Neurobasal medium with a 2% solution of B27 supplement, 2 mmol/liter of L-glutamine, 2% of PS solution, 10 ng/mL of brain-derived neurotrophic factor (BDNF), 2% of heat-inactivated horse serum, 2% of heat-inactivated FCS, 1 g/L of glucose, 1 mM of sodium pyruvate, and 100 μM of non-essential amino acids. The presence of serum in the medium allows the growth of the microglial cells. Viable cells were counted in a Neubauer cytometer, using the trypan blue exclusion test.\nThe cells were seeded at a density of 45 000 per well in 96-well plate precoated with poly-L-lysine and were cultured at 37° C. in an air (95%)—CO2 (5%) incubator. The medium was changed every 2 days.\nOn day 11 of culture, the compounds were dissolved in the appropriate vehicle and pre-incubated with the primary cortical neurons for one hour (1 h), before Aβ1-42 exposure.\nOn day 11 of culture, the cortical neurons were injured with the AP 1-42 peptide. AP 1-42 peptide was dissolved in the defined culture medium mentioned above, at an initial concentration of 20 μM. The solution was gently agitated for 3 days at 37° C. in the dark and immediately used after being properly diluted in culture medium to the concentration used (5 μM, 0.5 μM oligomers precisely evaluated by automatic WB). The AP 1-42 solution was applied on the culture at […] (0.5 μM oligomers, AβO), in presence of the compound, for 72 hours.\n72 hours after the application of Aβ, the cell culture supernatant was removed. Cells were then washed with phosphate-buffered saline (PBS) and fixed with a cold solution of ethanol (95%) and acetic acid (5%) for 5 min at −20° C. After two washing steps with cold PBS, cells permeabilized and unspecific binding sites were blocked with a solution of PBS containing 0.1% of saponin and 1% of FCS, for 15 min at RT. Cells were incubated for 2 hours with: • a) Monoclonal anti-MAP2 antibody produced in mouse at dilution of 1/400 in PBS containing 1% FCS, 0.1% saponin, for 2 hours at room temperature. • b) Rabbit polyclonal antibody anti-SIRP alpha/CD172a (OX-41) at dilution of 1/400 in PBS containing 1% fetal calf serum and 0.1% of saponin (this antibody stains specifically the microglia and will allow to evaluate the activation of the microglial cells).\nFor each condition, 30 pictures (representative of the whole well area) were automatically taken using ImageXpress® (Molecular Devices) at 20× magnification using the same acquisition parameters. From images, the analyses were automatically performed by MetaXpress® (Molecular Devices). The following read-outs were measured: • Total neuron survival (number of MAP-2(+) neurons), • Total length of neurite network of MAP-2(+) neurons (in μm) • Total area of activated microglia (area of OX-41 signal, in μm^2)\nAll values are expressed as mean+/−SEM (standard error of the mean). Statistical analysis was performed by one-way ANOVA followed by Fisher's LSD test, with GraphPad Prism. p<0.05 was considered significant.", "key": {"[1]": {"conditions": "123 and 370 nM, Aβ1-42 72 hours"}}}
{"smiles": "O=c1oc2cc(O)ccc2c2ccc(OC3CCOCC3)cc12", "note": "[compound 33, 3-hydroxy-8-((tetrahydro-2H-pyran-4-yl)oxy)-6H-benzo[c]chromen-6-one]", "values": [{"measurement": "microglial activation (conclusion)", "result": "significantly reduce"}, {"measurement": "neuroprotection in the inflammatory in vitro model (conclusion)", "result": "neuroprotective"}, {"measurement": "neurite network of cortical neurons (MAP-2)", "setting": "[1]", "result": "significantly protect"}, {"measurement": "survival of cortical neurons (MAP-2)", "setting": "[1]", "result": "significantly protect"}, {"measurement": "microglial activation (OX-41)", "setting": "between 41.1 nM and 370 nM, Aβ1-42 72 hours", "result": "significant decrease"}]}
